IC50 data for 21 molecules are collected here from patent US11420970B1 (NOVARTIS AG, priority 2019, dated 2022).

The target in one assay is NSD2 [1-1365] (Homo sapiens (Human), UniProt O96028). The experiment in a line: LC-MS/MS-based NSD2 enzymatic assay (SAH production). The assay is classed as biochemical. The conditions noted are these: read-out: NSD2 IC50. In outline:
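SAH formed was measured by LC-MS/MS using d4-SAH as internal standard and an SAH calibration curve. Compounds were preincubated 20 min with NSD2 [1-1365] and SAM; mouse-liver nucleosome then started a 90 min room-temperature reaction (8 nM enzyme, 1 μM SAM, 400 nM nucleosome final, pH 8.0), stopped with TFA.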

Assay [1] deals with cellular H3K36me2 level in thyroid carcinoma cell line CGTH-W-1 (NSD2 E1099K). The experiment in a line: H3K36me2 cellular ELISA assay in CGTH-W-1 line. The assay is classed as cell-based. The conditions noted are these: Homo sapiens, read-out: H3K36me2 ELISA in CGTH-W-1. The protocol: H3K36Me2 Cellular ELISA Assay in CGTH-W-1 Line
An ELISA (enzyme-linked immunosorbent assay) based assay was used to test the ability of candidate compound to reduce cellular H3K36me2 level in thyroid carcinoma cell line CGTH-W-1, carrying NSD2 E1099K gain of function mutation. CGTH-W-1 (DSMZ) cells are maintained in RPM11640 media with 10% FBS and 50 U/ml Penicillin-Streptomycin.
Cells were treated with tested compounds at the desired concentration for 72 hours.
Histone bound plates were washed and blocked with 5% BSA. […] The abundance of H3K36me2 and total H3 was measured by Chemiluminesce on a plate reader. Cell viability was monitored on a parallel seeded plate with CellTiter-Glo reagent (Promega #G7573).
(In general: In an ELISA, binding on a coated surface is turned into a signal by an enzyme label.)

In assay [2] the test system is cellular H3K36me2 level in multiple myeloma cell line KMS11 (t(4;14)+). The experiment in a line: H3K36me2 cellular ELISA assay in KMS11-Par line. The conditions noted are these: Homo sapiens, KMS-11, ELISA, read-out: H3K36me2 ELISA in KMS11-Par. Type of assay: cell-based. In outline:
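After 72 h compound exposure, HCl-extracted histones from KMS11 (t(4;14)+) cells were probed by ELISA for H3K36me2 against total H3 with a chemiluminescence read-out. Cells were plated at 1,250/well in Opti-MEM plus B-27 and N2 the day before. A parallel CellTiter-Glo plate tracked viability.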

Where [3] appears, read: NSD2 biochemical activity, class symbols.
[4] abbreviates: KMS11-Par line (t(4;14)+), 72 hours treatment.

Where two headings read alike, the source gives them in different places.

Chain of NSD2 [1-1365] (O96028 whole entry): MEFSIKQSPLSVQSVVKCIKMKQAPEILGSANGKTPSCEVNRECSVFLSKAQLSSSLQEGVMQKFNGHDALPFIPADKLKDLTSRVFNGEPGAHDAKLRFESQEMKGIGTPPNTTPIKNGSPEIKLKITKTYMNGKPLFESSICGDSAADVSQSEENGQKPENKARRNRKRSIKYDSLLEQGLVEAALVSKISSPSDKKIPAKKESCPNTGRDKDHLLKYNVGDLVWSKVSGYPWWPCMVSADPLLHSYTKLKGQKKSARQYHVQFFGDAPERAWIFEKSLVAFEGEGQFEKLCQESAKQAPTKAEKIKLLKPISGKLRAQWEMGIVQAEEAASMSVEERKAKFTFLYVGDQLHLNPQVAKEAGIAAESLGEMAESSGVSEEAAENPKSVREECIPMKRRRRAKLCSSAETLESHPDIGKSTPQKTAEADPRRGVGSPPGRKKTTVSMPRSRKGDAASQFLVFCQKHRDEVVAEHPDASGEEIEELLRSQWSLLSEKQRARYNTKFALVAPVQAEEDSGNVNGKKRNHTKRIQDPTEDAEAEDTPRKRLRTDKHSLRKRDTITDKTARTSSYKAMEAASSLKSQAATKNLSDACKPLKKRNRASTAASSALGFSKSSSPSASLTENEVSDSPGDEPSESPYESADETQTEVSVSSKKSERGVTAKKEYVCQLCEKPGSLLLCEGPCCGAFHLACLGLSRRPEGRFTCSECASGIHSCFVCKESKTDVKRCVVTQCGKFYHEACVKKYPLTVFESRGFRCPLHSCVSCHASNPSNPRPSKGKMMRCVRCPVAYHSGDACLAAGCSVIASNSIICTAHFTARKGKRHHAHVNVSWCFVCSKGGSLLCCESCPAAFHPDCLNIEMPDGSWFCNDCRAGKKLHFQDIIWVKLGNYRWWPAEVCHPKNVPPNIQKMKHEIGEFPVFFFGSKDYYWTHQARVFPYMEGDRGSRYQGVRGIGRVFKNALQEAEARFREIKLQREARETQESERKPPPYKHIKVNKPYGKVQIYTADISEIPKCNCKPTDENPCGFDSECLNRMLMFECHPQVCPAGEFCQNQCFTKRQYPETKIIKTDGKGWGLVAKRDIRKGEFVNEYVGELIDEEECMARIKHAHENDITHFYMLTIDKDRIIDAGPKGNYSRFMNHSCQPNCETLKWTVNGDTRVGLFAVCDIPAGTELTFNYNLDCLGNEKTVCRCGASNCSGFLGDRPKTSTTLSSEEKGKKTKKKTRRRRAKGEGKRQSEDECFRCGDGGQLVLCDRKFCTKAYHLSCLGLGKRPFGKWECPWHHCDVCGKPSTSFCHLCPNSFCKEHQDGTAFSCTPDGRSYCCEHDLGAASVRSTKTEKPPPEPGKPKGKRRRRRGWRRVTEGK

`COc1c(F)cc(-c2cc(Cn3cnc4c(N)ncnc43)c(N3CCC[C@](N)(C(O)C(F)F)C3)cn2)cc1F` (stereo in doubt) [Example 164, (R)-1-((R)-3-amino-1-(4-((6-amino-9H-purin-9-yl)methyl)-6-(3,5-difluoro-4-methoxyphenyl)pyridin-3-yl)piperidin-3-yl)-2,2-difluoroethan-1-ol]: the IC50 is 1 to 10 nM at NSD2 [1-1365] (setting [3]); 130 nM in assay [1] (CGTH-W-1, 72 h); 1060 nM in assay [2] (setting [4]).

Consider `COc1c(F)cc(-c2cc(Cn3cnc4c(N)ncnc43)c(N3CCC[C@](N)(C(O)C(F)F)C3)cn2)cc1F` (stereo in doubt) [Example 165, (S)-1-((R)-3-amino-1-(4-((6-amino-9H-purin-9-yl)methyl)-6-(3,5-difluoro-4-methoxyphenyl)pyridin-3-yl)piperidin-3-yl)-2,2-difluoroethan-1-ol], for which the IC50 on NSD2 [1-1365] (setting [3]) was 1 to 10 nM; in assay [1] (CGTH-W-1, 72 h), 218 nM; in assay [2] (setting [4]), 1080 nM.

Consider `COc1ccc(-c2cc(Cn3cnc4c(N)ncnc43)c(N3CCC[C@](N)(C(O)C(F)F)C3)cn2)c(C(F)(F)F)c1` (stereo in doubt) [Example 166, (S)-1-((R)-3-amino-1-(4-((6-amino-9H-purin-9-yl)methyl)-6-(4-methoxy-2-(trifluoromethyl)phenyl)pyridin-3-yl)piperidin-3-yl)-2,2-difluoroethan-1-ol], for which the IC50 on NSD2 [1-1365] (setting [3]) is 1 to 10 nM; in assay [1] (CGTH-W-1, 72 h), 432 nM; in assay [2] (setting [4]), 8510 nM.

In the case of `COc1ccc(-c2cc(Cn3cnc4c(N)ncnc43)c(N3CCC[C@](N)(C(O)C(F)F)C3)cn2)c(C(F)(F)F)c1` (stereo in doubt) [Example 167, (R)-1-((R)-3-amino-1-(4-((6-amino-9H-purin-9-yl)methyl)-6-(4-methoxy-2-(trifluoromethyl)phenyl)pyridin-3-yl)piperidin-3-yl)-2,2-difluoroethan-1-ol], the IC50 at NSD2 [1-1365] is 10 to 1000 nM; in assay [1] (CGTH-W-1, 72 h) it was 559 nM; in assay [2] (KMS11-Par line, 72 hours), 6120 nM.

On to `Nc1ncnc2c1ncn2Cc1cc(-c2ccc(F)c(F)c2)ncc1N1CC[C@@H](O)[C@@H](N)C1` [Example 3, (3S,4R)-3-amino-1-(4-((6-amino-9H-purin-9-yl)methyl)-6-(3,4-difluorophenyl)pyridin-3-yl)piperidin-4-ol], for which the IC50 on NSD2 [1-1365] (setting [3]) is 10 to 1000 nM; in assay [1] (CGTH-W-1, 72 h), 8250 nM; in assay [2] (setting [4]), 33300 nM.

With `Cn1ccc(C[C@@]2(N)CCCN(c3cnc(-c4ccc(F)c(F)c4)cc3Cn3cnc4c(N)ncnc43)C2)n1` [Example 56, (S)-9-((5-(3-amino-3-((1-methyl-1H-pyrazol-3-yl)methyl)piperidin-1-yl)-2-(3,4-difluorophenyl)pyridin-4-yl)methyl)-9H-purin-6-amine], the IC50 is 1 to 10 nM at NSD2 [1-1365] (setting [3]); 273 nM in assay [1] (CGTH-W-1, 72 h); 234 nM in assay [2] (setting [4]).

Turning to `Nc1ncnc2c1ncn2Cc1cc(-c2ccc3c(c2)OCO3)ncc1N1CCCC(N)(c2cccc(Cl)n2)C1` (stereo not drawn) [Example 186, 9-((5-(3-amino-3-(6-chloropyridin-2-yl)piperidin-1-yl)-2-(benzo[d][1,3]dioxo1-5-yl)pyridin-4-yl)methyl)-9H-purin-6-amine], the IC50 on NSD2 [1-1365] is 10 to 1000 nM; in assay [1] (CGTH-W-1, 72 h) it was 967 nM.

Consider `NC(=O)c1cccc(C2(N)CCCN(c3cnc(-c4ccc(F)c(F)c4)cc3Cn3cnc4c(N)ncnc43)C2)n1` (stereo not drawn) [Example 195, 6-(3-amino-1-(4-((6-amino-9H-purin-9-yl)methyl)-6-(3,4-difluorophenyl)pyridin-3-yl)piperidin-3-yl)picolinamide], for which the IC50 at NSD2 [1-1365] is 10 to 1000 nM; in assay [1] (CGTH-W-1, 72 h) it was 4920 nM.

Regarding `N#Cc1cccc(C2(N)CCCN(c3cnc(-c4ccc(F)c(F)c4)cc3Cn3cnc4c(N)ncnc43)C2)n1` (stereo not drawn) [Example 208, 6-(3-amino-1-(4-((6-amino-9H-purin-9-yl)methyl)-6-(3,4-difluorophenyl)pyridin-3-yl)piperidin-3-yl)picolinonitrile], the IC50 is 10 to 1000 nM on NSD2 [1-1365] and 2780 nM in assay [1] (CGTH-W-1, 72 h).

Consider `Nc1ncnc2c1ncn2Cc1cc(-c2ccc(F)c(F)c2)ncc1N1CCC[C@](N)(c2ccc(OC(F)F)cn2)C1` [Example 209, (R)-9-((5-(3-amino-3-(5-(difluoromethoxy)pyridin-2-yl)piperidin-1-yl)-2-(3,4-difluorophenyl)pyridin-4-yl)methyl)-9H-purin-6-amine], for which the IC50 on NSD2 [1-1365] was 1 to 10 nM; in assay [1] (CGTH-W-1 line, ELISA, 72 hours) it was 324 nM.

As for `COc1ccc(-c2cc(Cn3cnc4c(N)ncnc43)c(N3CCC[C@](N)(c4cccc(Cl)n4)C3)cn2)cc1` [Example 211, (R)-9-((5-(3-amino-3-(6-chloropyridin-2-yl)piperidin-1-yl)-2-(4-methoxyphenyl)pyridin-4-yl)methyl)-9H-purin-6-amine], the IC50 at NSD2 [1-1365] is 1 to 10 nM; in assay [1] (CGTH-W-1, 72 h), 387 nM.

`Nc1ncnc2c1ncn2Cc1cc(-c2ccc(F)c(F)c2)ncc1N1CCC[C@](N)(c2cccc(O)n2)C1` [Example 217, (R)-6-(3-amino-1-(4-((6-amino-9H-purin-9-yl)methyl)-6-(3,4-difluorophenyl)pyridin-3-yl)piperidin-3-yl)pyridin-2-ol]: the IC50 at NSD2 [1-1365] was 1 to 10 nM; in assay [1] (CGTH-W-1, 72 h), 2240 nM.

Take `Nc1ncnc2c1ncn2Cc1cc(-c2ccc(F)cc2)ncc1N1CCC[C@](N)(c2ccc(F)c(C(F)F)n2)C1` [Example 218, (R)-9-((5-(3-amino-3-(6-(difluoromethyl)-5-fluoropyridin-2-yl)piperidin-1-yl)-2-(4-fluorophenyl)pyridin-4-yl)methyl)-9H-purin-6-amine]: the IC50 was 10 to 1000 nM on NSD2 [1-1365] and 101 nM in assay [1] (CGTH-W-1, 72 h).

Take `Cn1ncc2cc(-c3cc(Cn4cnc5c(N)ncnc54)c(N4CCCC(N)(c5cccc(Cl)n5)C4)cn3)ccc21` (stereo not drawn) [Example 225, 9-((5-(3-amino-3-(6-chloropyridin-2-yl)piperidin-1-yl)-2-(1-methyl-1H-indazol-5-yl)pyridin-4-yl)methyl)-9H-purin-6-amine]: the IC50 is 10 to 1000 nM at NSD2 [1-1365] and 1960 nM in assay [1] (CGTH-W-1, 72 h).

With `Nc1ncnc2c1ncn2Cc1cc(-c2ccc(OC(F)F)c(F)c2)ncc1N1CCCC(N)(c2cccc(Cl)n2)C1` (stereo not drawn) [Example 228, 9-((5-(3-amino-3-(6-chloropyridin-2-yl)piperidin-1-yl)-2-(4-(difluoromethoxy)-3-fluorophenyl)pyridin-4-yl)methyl)-9H-purin-6-amine], the IC50 on NSD2 [1-1365] is 10 to 1000 nM; in assay [1] (CGTH-W-1, 72 h), 611 nM.

Take `Nc1ncnc2c1ncn2Cc1cc(-c2ccc(F)c(F)c2)ncc1N1CCCC(N)(c2cccnn2)C1` (stereo not drawn) [Example 253, 9-((5-(3-amino-3-(pyridazin-3-yl)piperidin-1-yl)-2-(3,4-difluorophenyl)pyridin-4-yl)methyl)-9H-purin-6-amine]: the IC50 on NSD2 [1-1365] is 10 to 1000 nM; in assay [1] (CGTH-W-1, 72 h), 357 nM.

As for `Nc1ncnc2c1ncn2Cc1cc(-c2ccc(F)c(F)c2)ncc1N1CCCC(N)(c2ccncn2)C1` (stereo not drawn) [Example 255, 9-((5-(3-amino-3-(pyrimidin-4-yl)piperidin-1-yl)-2-(3,4-difluorophenyl)pyridin-4-yl)methyl)-9H-purin-6-amine], the IC50 on NSD2 [1-1365] was 10 to 1000 nM; in assay [1] (CGTH-W-1, 72 h) it was 232 nM.

Consider `Cc1cncc([C@@]2(N)CCCN(c3cnc(-c4ccc(F)c(F)c4)cc3Cn3cnc4c(N)ncnc43)C2)n1` [Example 258, (R)-9-((5-(3-amino-3-(6-methylpyrazin-2-yl)piperidin-1-yl)-2-(3,4-difluorophenyl)pyridin-4-yl)methyl)-9H-purin-6-amine], for which the IC50 on NSD2 [1-1365] was 10 to 1000 nM; in assay [1] (CGTH-W-1, 72 h), 434 nM.

As to `Nc1ncnc2c1ncn2Cc1cc(-c2ccc(F)cc2)ncc1N1CCCC(N)(c2csc(Cl)n2)C1` (stereo not drawn) [Example 281, 9-((5-(3-amino-3-(2-chlorothiazol-4-yl)piperidin-1-yl)-2-(4-fluorophenyl)pyridin-4-yl)methyl)-9H-purin-6-amine], the IC50 on NSD2 [1-1365] is 10 to 1000 nM; in assay [1] (CGTH-W-1, 72 h), 826 nM.

In the case of `Cn1cc(C2(N)CCCN(c3cnc(-c4ccc(F)c(F)c4)cc3Cn3cnc4c(N)ncnc43)C2)nn1` (stereo not drawn) [Example 282, 9-((5-(3-amino-3-(1-methyl-1H-1,2,3-triazol-4-yl)piperidin-1-yl)-2-(3,4-difluorophenyl)pyridin-4-yl)methyl)-9H-purin-6-amine], the IC50 at NSD2 [1-1365] is 10 to 1000 nM; in assay [1] (CGTH-W-1, 72 h), 1530 nM.

With `COc1ccc(-c2cc(Cn3cnc4c(N)ncnc43)c(N3C[C@H](N)C[C@@H](CF)C3)cn2)cc1F` [Example 306, 9-((5-((3R,5R)-3-amino-5-(fluoromethyl)piperidin-1-yl)-2-(3-fluoro-4-methoxyphenyl)pyridin-4-yl)methyl)-9H-purin-6-amine], the IC50 is 10 to 1000 nM on NSD2 [1-1365] and 6460 nM in assay [1] (CGTH-W-1, 72 h).
